Measured values from patent publication US8993586B2, “N1/N2-lactam acetyl-CoA carboxylase inhibitors” (Pfizer Inc., priority 2010, dated 2015).
pIC50: −log10 of the molar value.

Legend:
[1] = molecular target: recombinant human ACC1 (rhACC1) (Homo sapiens (Human), UniProt Q13085); assay: recombinant hACC1 Transcreener ADP detection FP assay; format: biochemical; details: 50 μM ATP, 120 min at 25° C.
Protocol: (§1) For example direct inhibition of ACC activity, for the compound of Formula (I) was determined using preparations of recombinant human ACC1 (rhACC1) and recombinant human ACC2 (rhACC2).
[1] Preparation of rhACC1. Two liters of SF9 cells, infected with recombinant baculovirus containing full length human ACC1 cDNA, were suspended in ice-cold lysis buffer (25 mM Tris, pH 7.5; 150 mM NaCl; 10% glycerol; 5 mM imidazole (EMD Bioscience; Gibbstown, N.J.); 2 mM TCEP (BioVectra; Charlottetown, Canada); Benzonase nuclease (10000 U/100 g cell paste; Novagen; Madison, Wis.); EDTA-free protease inhibitor cocktail (1 tab/50 mL; Roche Diagnostics; Mannheim, Germany). Cells were lysed by 3 cycles of freeze-thaw and centrifuged at 40,000×g for 40 minutes (4° C.). Supernatant was directly loaded onto a HisTrap FF crude column (GE Healthcare; Piscataway, N.J.) and eluted with an imidazole gradient up to 0.5 M over 20 column volumes (CV). ACC1-containing fractions were pooled and diluted 1:5 with 25 mM Tris, pH 7.5, 2 mM TCEP, 10% glycerol and direct loaded onto a CaptoQ (GE Healthcare) column and eluted with an NaCl gradient up to 1 M over 20 CV's. Phosphate groups were removed from purified ACC1 by incubation with lambda phosphatase (100 U/10 μM target protein; New England Biolabs; Beverly, Mass.) for 14 hours at 4° C.; okadaic acid was added (1 μM final concentration; Roche Diagnostics) to inhibit the phosphatase. Purified ACC1 was exchanged into 25 mM Tris, pH 7.5, 2 mM TCEP, 10% glycerol, 0.5 M NaCl by 6 hour dialysis at 4° C. Aliquots were prepared and frozen at −80° C.
[2] Measurement of rhACC1 inhibition. hACC1 was assayed in a Costar #3676 (Costar, Cambridge, Mass.) 384-well plate using the Transcreener ADP detection FP assay kit (Bellbrook Labs, Madison, Wis.) using the manufacturer's recommended conditions for a 50 μM ATP reaction. The final conditions for the assay were 50 mM HEPES, pH 7.2, 10 mM MgCl2, 7.5 mM tripotassium citrate, 2 mM DTT, 0.1 mg/mL BSA, 30 μM acetyl-CoA, 50 μM ATP, and 10 mM KHCO3 Typically, a 10 μl reaction was run for 120 min at 25° C., and 10 μl of Transcreener stop and detect buffer was added and the combination incubated at room temp for an additional 1 hour. The data was acquired on a Envision Fluorescence reader (PerkinElmer) using a 620 excitation Cy5 FP general dual mirror, 620 excitation Cy5 FP filter, 688 emission (S) and a 688 (P) emission filter.

[2] = molecular target: recombinant human ACC2 (rhACC2) (Homo sapiens (Human), UniProt O00763); assay: recombinant hACC2 Transcreener ADP detection FP assay; format: biochemical; details: 50 uM ATP, 50 min at 25° C.
Protocol: as §1
[3] Preparation of rhACC2. Human ACC2 inhibition was measured using purified recombinant human ACC2 (hrACC2). Briefly, a full length Cytomax clone of ACC2 was purchased from Cambridge Bioscience Limited and was sequenced and subcloned into PCDNA5 FRT TO-TOPO (Invitrogen, Carlsbad, Calif.). The ACC2 was expressed in CHO cells by tetracycline induction and harvested in 5 liters of DMEM/F12 with glutamine, biotin, hygromycin and blasticidin with 1 μg/mL tetracycline (Invitrogen, Carlsbad, Calif.). The conditioned medium containing ACC2 was then applied to a Softlink Soft Release Avidin column (Promega, Madison, Wis.) and eluted with 5 mM biotin. […] The purified ACC2 was dialyzed in 50 mM Tris, 200 mM NaCl, 4 mM DTT, 2 mM EDTA, and 5% glycerol. […] For measurement of ACC2 activity and assessment of ACC2 inhibition, test compounds were dissolved in DMSO and added to the rhACC2 enzyme as a 5× stock with a final DMSO concentration of 1%.
[4] Measurement of human ACC2 inhibition. hACC2 was assayed in a Costar #3676 (Costar, Cambridge, Mass.) 384-well plate using the Transcreener ADP detection FP assay kit (Bellbrook Labs, Madison, Wis.) using the manufacturer's recommended conditions for a 50 uM ATP reaction. The final conditions for the assay were 50 mM HEPES, pH 7.2, 5 mM MgCl2, 5 mM tripotassium citrate, 2 mM DTT, 0.1 mg/mL BSA, 30 μM acetyl-CoA, 50 μM ATP, and 8 mM KHCO3 Typically, a 10 μl reaction was run for 50 min at 25° C., and 10 μl of Transcreener stop and detect buffer was added and the combination incubated at room temp for an additional 1 hour. The data was acquired on an Envision Fluorescence reader (PerkinElmer) using a 620 excitation Cy5 FP general dual mirror, 620 excitation Cy5 FP filter, 688 emission (S) and a 688 (P) emission filter.

Sequence of recombinant human ACC2 (rhACC2) (O00763 whole entry V2141I): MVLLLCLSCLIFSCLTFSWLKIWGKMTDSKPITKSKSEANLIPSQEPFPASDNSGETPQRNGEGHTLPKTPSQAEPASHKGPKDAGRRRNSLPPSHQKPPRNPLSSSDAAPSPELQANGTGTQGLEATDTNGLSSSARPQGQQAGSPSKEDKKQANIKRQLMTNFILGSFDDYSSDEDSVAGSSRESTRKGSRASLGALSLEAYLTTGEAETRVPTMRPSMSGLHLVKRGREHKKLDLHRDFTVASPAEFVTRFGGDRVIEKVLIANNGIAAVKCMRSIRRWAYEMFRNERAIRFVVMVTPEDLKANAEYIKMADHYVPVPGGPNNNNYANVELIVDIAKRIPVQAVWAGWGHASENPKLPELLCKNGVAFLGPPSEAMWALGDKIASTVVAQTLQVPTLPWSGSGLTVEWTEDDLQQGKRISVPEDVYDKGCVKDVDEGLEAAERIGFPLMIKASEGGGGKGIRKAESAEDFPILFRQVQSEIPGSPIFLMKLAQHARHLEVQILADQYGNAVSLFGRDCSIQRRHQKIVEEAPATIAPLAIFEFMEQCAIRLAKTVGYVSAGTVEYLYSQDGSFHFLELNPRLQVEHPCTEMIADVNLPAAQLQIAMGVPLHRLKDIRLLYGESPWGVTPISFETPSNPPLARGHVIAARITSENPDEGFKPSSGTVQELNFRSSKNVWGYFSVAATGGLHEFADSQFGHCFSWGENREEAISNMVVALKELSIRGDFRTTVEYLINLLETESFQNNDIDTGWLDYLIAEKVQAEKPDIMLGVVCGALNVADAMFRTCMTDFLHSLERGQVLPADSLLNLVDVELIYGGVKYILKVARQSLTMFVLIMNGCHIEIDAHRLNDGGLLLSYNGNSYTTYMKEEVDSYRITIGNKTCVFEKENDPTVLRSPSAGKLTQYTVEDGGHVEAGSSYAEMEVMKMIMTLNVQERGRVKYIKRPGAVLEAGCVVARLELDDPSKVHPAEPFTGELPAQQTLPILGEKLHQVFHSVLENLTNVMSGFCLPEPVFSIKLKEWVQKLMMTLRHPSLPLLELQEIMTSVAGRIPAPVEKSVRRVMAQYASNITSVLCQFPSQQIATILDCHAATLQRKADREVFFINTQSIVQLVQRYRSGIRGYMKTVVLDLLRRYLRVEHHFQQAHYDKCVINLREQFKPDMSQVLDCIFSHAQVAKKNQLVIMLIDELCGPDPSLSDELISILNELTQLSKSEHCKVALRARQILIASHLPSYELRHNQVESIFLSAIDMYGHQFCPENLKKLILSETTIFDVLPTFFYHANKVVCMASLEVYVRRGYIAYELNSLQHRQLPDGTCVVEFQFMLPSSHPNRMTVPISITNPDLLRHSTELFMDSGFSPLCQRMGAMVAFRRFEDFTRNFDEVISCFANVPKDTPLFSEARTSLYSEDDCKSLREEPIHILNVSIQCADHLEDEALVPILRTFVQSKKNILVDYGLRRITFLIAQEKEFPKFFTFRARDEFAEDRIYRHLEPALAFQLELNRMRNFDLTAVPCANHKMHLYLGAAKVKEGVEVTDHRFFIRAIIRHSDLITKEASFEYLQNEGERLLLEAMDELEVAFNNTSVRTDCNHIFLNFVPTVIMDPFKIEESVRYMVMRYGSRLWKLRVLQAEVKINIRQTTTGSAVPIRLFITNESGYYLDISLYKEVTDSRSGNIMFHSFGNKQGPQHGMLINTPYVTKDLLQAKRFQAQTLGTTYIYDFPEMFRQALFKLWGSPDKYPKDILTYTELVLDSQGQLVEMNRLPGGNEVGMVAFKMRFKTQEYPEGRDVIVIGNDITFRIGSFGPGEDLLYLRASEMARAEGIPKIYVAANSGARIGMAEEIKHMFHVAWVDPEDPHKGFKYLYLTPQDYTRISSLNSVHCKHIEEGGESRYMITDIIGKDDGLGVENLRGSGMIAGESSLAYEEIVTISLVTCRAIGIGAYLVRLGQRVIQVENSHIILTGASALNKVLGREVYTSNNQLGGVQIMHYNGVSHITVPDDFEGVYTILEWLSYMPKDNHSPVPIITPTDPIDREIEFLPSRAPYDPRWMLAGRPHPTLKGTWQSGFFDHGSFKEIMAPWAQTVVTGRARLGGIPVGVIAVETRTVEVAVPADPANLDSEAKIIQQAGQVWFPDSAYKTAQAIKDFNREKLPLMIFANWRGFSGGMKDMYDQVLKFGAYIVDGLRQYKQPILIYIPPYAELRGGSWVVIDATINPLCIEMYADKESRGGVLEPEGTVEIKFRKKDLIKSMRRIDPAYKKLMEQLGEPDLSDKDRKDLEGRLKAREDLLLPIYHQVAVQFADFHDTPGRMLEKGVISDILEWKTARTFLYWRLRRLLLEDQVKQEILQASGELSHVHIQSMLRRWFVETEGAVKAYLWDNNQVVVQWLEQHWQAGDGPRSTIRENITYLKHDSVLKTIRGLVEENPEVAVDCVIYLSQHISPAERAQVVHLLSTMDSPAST

Row | SMILES | pIC50 [1] | pIC50 [2]
1 | CN(C)c1nccc2ccc(C(=O)N3CCC4(CC3)Cc3cn(C(C)(C)C)nc3C(=O)N4)cc12 [Example 103, 2′-tert-butyl-1-(1-(dimethylamino)isoquinoline-7-carbonyl)-4′,6′-dihydrospiro[piperidine-4,5′-pyrazolo[3,4-c]pyridin]-7′(2′H)-one] | 7.14 | 8.05
2 | CC(C)(C)n1cc2c(n1)C(=O)NC1(CCN(C(=O)c3ccc4ccc(Cl)nc4c3)CC1)C2 [Example 104, 2′-tert-butyl-1-(2-chloroquinoline-7-carbonyl)-4′,6′-dihydrospiro[piperidine-4,5′-pyrazolo[3,4-c]pyridin]-7′(2′H)-one] | 7.05 | 7.80
3 | CC(C)(C)n1cc2c(n1)C(=O)NC1(CCN(C(=O)c3ccc4ccc(NC5CC5)nc4c3)CC1)C2 [Example 106] | 8.12 | 8.59
4 | CC(C)Nc1ccc2ccc(C(=O)N3CCC4(CC3)Cc3cn(C(C)(C)C)nc3C(=O)N4)cc2n1 [Example 107] | 8.21 | 8.66
5 | CC(C)(C)n1cc2c(n1)C(=O)NC1(CCN(C(=O)c3ccc4ccc(NC5COC5)nc4c3)CC1)C2 [Example 113] | 6.29 | 7.36
6 | Cc1n[nH]c2c(C)cc(C(=O)N3C4CCC3CC3(Cc5cn(C(C)(C)C)nc5C(=O)N3)C4)cc12 (centres unmarked) [Example 114] | 5.32 | 6.21
7 | CC(C)(C)n1cc2c(n1)C(=O)NC1(CCN(C(=O)c3ccc4ccnc(NC5CC5)c4c3)CC1)C2 [Example 115] | 7.54 | 8.54
8 | CC(C)Nc1nccc2ccc(C(=O)N3CCC4(CC3)Cc3cn(C(C)(C)C)nc3C(=O)N4)cc12 [Example 116] | 7.70 | 8.33
9 | CCN(C)c1nccc2ccc(C(=O)N3CCC4(CC3)Cc3cn(C(C)(C)C)nc3C(=O)N4)cc12 [Example 117] | 6.48 | 7.27
10 | CC(C)(C)n1cc2c(n1)C(=O)NC1(CCN(C(=O)c3ccc4ccnc(NC5CCC5)c4c3)CC1)C2 [Example 118] | 7.77 | 8.57
11 | CC(C)(C)n1cc2c(n1)C(=O)NC1(CCN(C(=O)c3ccc4ccnc(NC5COC5)c4c3)CC1)C2 [Example 122] | 6.31 | 7.11
12 | CC(C)(C)Nc1nccc2ccc(C(=O)N3CCC4(CC3)Cc3cn(C(C)(C)C)nc3C(=O)N4)cc12 [Example 123, 2′-(tert-butyl)-1-(1-(tert-butylamino)isoquinoline-7-carbonyl)-4′,6′-dihydrospiro[piperidine-4,5′-pyrazolo[3,4-c]pyridin]-7′(2′H)-one] | 7.11 | 8.20

Continued by rising pIC50 [1], values first:

Row | pIC50 [1] | pIC50 [2] | SMILES
13 | 6.80 | 7.59 | CC(C)(C)n1cc2c(n1)C(=O)NC1(CCN(C(=O)c3ccc4c(N)nccc4c3)CC1)C2 [Example 101, 1-(1-aminoisoquinoline-6-carbonyl)-2′-tert-butyl-4′,6′-dihydrospiro[piperidine-4,5′-pyrazolo[3,4-c]pyridin]-7′(2′H)-one]
14 | 7.33 | 8.21 | COCCNc1nccc2ccc(C(=O)N3CCC4(CC3)Cc3cn(C(C)(C)C)nc3C(=O)N4)cc12 [Example 120]
15 | 7.57 | 8.48 | COCCNc1ccc2ccc(C(=O)N3CCC4(CC3)Cc3cn(C(C)(C)C)nc3C(=O)N4)cc2n1 [Example 111]
16 | 7.62 | 8.60 | CCCNc1nccc2ccc(C(=O)N3CCC4(CC3)Cc3cn(C(C)(C)C)nc3C(=O)N4)cc12 [Example 119]
17 | 7.77 | 8.57 | CCNc1nccc2ccc(C(=O)N3CCC4(CC3)Cc3cn(C(C)(C)C)nc3C(=O)N4)cc12 [Example 121]
18 | 7.82 | 8.62 | CCN(C)c1ccc2ccc(C(=O)N3CCC4(CC3)Cc3cn(C(C)(C)C)nc3C(=O)N4)cc2n1 [Example 108]
19 | 8.05 | 8.77 | CC(F)(F)CNc1ccc2ccc(C(=O)N3CCC4(CC3)Cc3cn(C(C)(C)C)nc3C(=O)N4)cc2n1 [Example 125]
20 | 8.05 | 8.74 | CCNc1ccc2ccc(C(=O)N3CCC4(CC3)Cc3cn(C(C)(C)C)nc3C(=O)N4)cc2n1 [Example 112]
21 | 8.19 | 8.76 | CC(C)(C)n1cc2c(n1)C(=O)NC1(CCN(C(=O)c3ccc4ccc(NCC(F)(F)F)nc4c3)CC1)C2 [Example 124]
22 | 8.47 | 9.00 | CC(C)(C)n1cc2c(n1)C(=O)NC1(CCN(C(=O)c3ccc4ccc(NC5CCC5)nc4c3)CC1)C2 [Example 109]
